Measured values from the NIST ThermoML archive (doi:10.1016/j.fluid.2011.02.010).

Assay: xn = mol fraction of the nth substance listed
Conditions: 101 kPa, Liquid; for speed of sound: Frequency=2 MHz

CC[NH2+]CC.O=S(=O)([O-])O [diethylammonium hydrogen sulfate] + C[S+](C)[O-]
Conditions	mass density [kg/m3]	speed of sound [m/s]	viscosity [mPa·s]
298.15 K, x1 = 0.0569	–	1486	2.94
298.15 K, x1 = 0.1196	–	1476	4.13
298.15 K, x1 = 0.189	–	1466	5.55
298.15 K, x1 = 0.2461	–	1460	6.77
298.15 K, x1 = 0.308	–	1450	8.15
298.15 K, x1 = 0.3756	–	1444	9.66
298.15 K, x1 = 0.4494	–	1434	11.38
298.15 K, x1 = 0.5306	–	1428	13.31
298.15 K, x1 = 0.6201	–	1424	15.49
298.15 K, x1 = 0.6852	–	1420	17.12
298.15 K, x1 = 0.7552	–	1420	18.87
298.15 K, x1 = 0.8306	–	1426	20.88
298.15 K, x1 = 0.912	–	1428	23.1
298.15 K, x1 = 1	1028.39	1432	25.8
303.15 K, x1 = 0.0569	–	1462	2.53
303.15 K, x1 = 0.1196	–	1452	3.48
303.15 K, x1 = 0.189	–	1442	4.64
303.15 K, x1 = 0.2461	–	1434	5.62
303.15 K, x1 = 0.308	–	1426	6.74
303.15 K, x1 = 0.3756	–	1418	8.01
303.15 K, x1 = 0.4494	–	1410	9.41
303.15 K, x1 = 0.5306	–	1404	11.02
303.15 K, x1 = 0.6201	–	1400	12.83
303.15 K, x1 = 0.6852	–	1398	14.18
303.15 K, x1 = 0.7552	–	1398	15.65
303.15 K, x1 = 0.8306	–	1400	17.27
303.15 K, x1 = 0.9121	–	1404	19.14
303.15 K, x1 = 1	1023.97	1408	21.3
308.15 K, x1 = 0.0569	–	1446	2.33
308.15 K, x1 = 0.1196	–	1436	3.16
308.15 K, x1 = 0.189	–	1428	4.12
308.15 K, x1 = 0.2461	–	1418	4.94
308.15 K, x1 = 0.308	–	1410	5.85
308.15 K, x1 = 0.3756	–	1402	6.86
308.15 K, x1 = 0.4494	–	1396	8.02
308.15 K, x1 = 0.5306	–	1388	9.35
308.15 K, x1 = 0.6201	–	1384	10.89
308.15 K, x1 = 0.6852	–	1384	12.06
308.15 K, x1 = 0.7552	–	1382	13.39
308.15 K, x1 = 0.8306	–	1384	14.84
308.15 K, x1 = 0.9121	–	1388	16.38
308.15 K, x1 = 1	1020.54	1392	18.1
318.15 K, x1 = 0.0569	–	1414	2
318.15 K, x1 = 0.1196	–	1404	2.63
318.15 K, x1 = 0.189	–	1392	3.33
318.15 K, x1 = 0.2461	–	1386	3.93
318.15 K, x1 = 0.308	–	1378	4.59
318.15 K, x1 = 0.3756	–	1370	5.34
318.15 K, x1 = 0.4494	–	1362	6.22
318.15 K, x1 = 0.5306	–	1356	7.19
318.15 K, x1 = 0.6201	–	1350	8.32
318.15 K, x1 = 0.6852	–	1348	9.16
318.15 K, x1 = 0.7552	–	1346	10.1
318.15 K, x1 = 0.8306	–	1348	11.1
318.15 K, x1 = 0.9121	–	1352	12.3
318.15 K, x1 = 1	1012.68	1356	13.61
328.15 K, x1 = 0.0569	–	1400	1.6
328.15 K, x1 = 0.1196	–	1406	2.24
328.15 K, x1 = 0.189	–	1392	2.95
328.15 K, x1 = 0.2461	–	1382	3.51
328.15 K, x1 = 0.308	–	1372	4.12
328.15 K, x1 = 0.3756	–	1362	4.77
328.15 K, x1 = 0.4494	–	1352	5.46
328.15 K, x1 = 0.5306	–	1342	6.21
328.15 K, x1 = 0.6201	–	1332	7.02
328.15 K, x1 = 0.6852	–	1326	7.57
328.15 K, x1 = 0.7552	–	1322	8.17
328.15 K, x1 = 0.8306	–	1320	8.8
328.15 K, x1 = 0.9121	–	1322	9.48
328.15 K, x1 = 1	1004.83	1324	10.2

CCCCn1cc[n+](C)c1.[Cl-] [1-butyl-3-methylimidazolium chloride] + C[S+](C)[O-]
Conditions	mass density [kg/m3]	speed of sound [m/s]	viscosity [mPa·s]
298.15 K, x1 = 0.0111	1096.4	1514	2.13
298.15 K, x1 = 0.0341	1096.96	1544	2.62
298.15 K, x1 = 0.0713	1097.81	1582	3.43
298.15 K, x1 = 0.1122	1098.51	1618	4.35
298.15 K, x1 = 0.1731	1098.36	1658	5.83
298.15 K, x1 = 0.2433	1097.41	1694	7.62
298.15 K, x1 = 0.3032	1095.8	1718	9.17
298.15 K, x1 = 0.3705	1093.86	1742	10.99
298.15 K, x1 = 0.4746	1090.52	1778	13.86
298.15 K, x1 = 0.5997	1086.4	1810	17.36
298.15 K, x1 = 0.7115	1083.11	1834	20.5
298.15 K, x1 = 0.843	1079.14	1848	24.28
298.15 K, x1 = 0.9445	1076.25	1856	27.39
298.15 K, x1 = 1	1074.43	1868	29.21
303.15 K, x1 = 0.0111	1093.12	1490	1.93
303.15 K, x1 = 0.0341	1094.05	1522	2.35
303.15 K, x1 = 0.0713	1094.88	1562	3.04
303.15 K, x1 = 0.1122	1095.16	1598	3.86
303.15 K, x1 = 0.1731	1095.51	1638	5.12
303.15 K, x1 = 0.2433	1094.39	1672	6.66
303.15 K, x1 = 0.3032	1092.84	1698	8.04
303.15 K, x1 = 0.3705	1090.91	1718	9.63
303.15 K, x1 = 0.4746	1087.56	1752	12.14
303.15 K, x1 = 0.5997	1083.53	1792	15.22
303.15 K, x1 = 0.7115	1080.09	1820	17.99
303.15 K, x1 = 0.843	1076.19	1844	21.34
303.15 K, x1 = 0.9445	1073.27	1852	24.12
303.15 K, x1 = 1	1071.38	1860	25.72
308.15 K, x1 = 0.0111	1087.12	1478	1.77
308.15 K, x1 = 0.0341	1088.6	1510	2.12
308.15 K, x1 = 0.0713	1089.65	1550	2.68
308.15 K, x1 = 0.1122	1090.4	1586	3.31
308.15 K, x1 = 0.1731	1090.8	1630	4.34
308.15 K, x1 = 0.2433	1089.91	1664	5.53
308.15 K, x1 = 0.3032	1088.61	1690	6.63
308.15 K, x1 = 0.3705	1086.93	1712	7.91
308.15 K, x1 = 0.4746	1083.87	1748	9.96
308.15 K, x1 = 0.5997	1080.1	1786	12.5
308.15 K, x1 = 0.7115	1076.93	1812	14.79
308.15 K, x1 = 0.843	1072.98	1832	17.57
308.15 K, x1 = 0.9445	1070.09	1840	19.84
308.15 K, x1 = 1	1068.32	1848	21.21
318.15 K, x1 = 0.0111	1077.1	1450	1.51
318.15 K, x1 = 0.0341	1078.9	1484	1.82
318.15 K, x1 = 0.0713	1080.54	1520	2.3
318.15 K, x1 = 0.1122	1081.62	1550	2.87
318.15 K, x1 = 0.1731	1082.42	1592	3.76
318.15 K, x1 = 0.2433	1081.92	1634	4.81
318.15 K, x1 = 0.3032	1080.89	1662	5.78
318.15 K, x1 = 0.3705	1079.44	1688	6.93
318.15 K, x1 = 0.4746	1076.76	1720	8.79
318.15 K, x1 = 0.5997	1073.27	1758	11.1
318.15 K, x1 = 0.7115	1070.22	1788	13.18
318.15 K, x1 = 0.843	1066.58	1808	15.7
318.15 K, x1 = 0.9445	1063.76	1814	17.76
318.15 K, x1 = 1	1062.14	1820	18.97
328.15 K, x1 = 0.0111	1067.04	1422	1.17
328.15 K, x1 = 0.0341	1069.24	1454	1.44
328.15 K, x1 = 0.0713	1071.41	1490	1.89
328.15 K, x1 = 0.1122	1072.82	1520	2.37
328.15 K, x1 = 0.1731	1074.01	1564	3.14
328.15 K, x1 = 0.2433	1073.91	1604	4.06
328.15 K, x1 = 0.3032	1073.16	1630	4.89
328.15 K, x1 = 0.3705	1071.9	1658	5.92
328.15 K, x1 = 0.4746	1069.49	1694	7.6
328.15 K, x1 = 0.5997	1066.39	1730	9.68
328.15 K, x1 = 0.7115	1063.48	1760	11.56
328.15 K, x1 = 0.843	1060.06	1788	13.82
328.15 K, x1 = 0.9445	1057.44	1796	15.65
328.15 K, x1 = 1	1055.89	1804	16.74
